Results reported in ChEMBL document CHEMBL3351358, “LPM7 Inhibitors May Potentially Treat Autoimmune Diseases” (ACS Med Chem Lett, 2014).

Legend:
[1] = Inhibition of LPM7 beta 5i subunit in human Ramos cells using ac-(anw)2-r110 substrate by fluorogenic assay; type: cell-based
[2] = Inhibition of LPM7 beta 5c subunit in human Ramos cells using rh110-(wla)2 substrate by fluorogenic assay; type: cell-based
[3] = Inhibition of LPM7 beta 1i subunit in human Ramos cells using rh110-(pal)2 substrate by fluorogenic assay; type: cell-based
[4] = Inhibition of LPM7 beta 1c subunit in human Ramos cells using rh110-(Ile)2 substrate by fluorogenic assay; type: cell-based
[5] = Inhibition of LPM7 in CpG type A-stimulated human PBMCs by CXCL10/IP10 detection based PBMC IP-10 assay

IC50 [1] [µM] | IC50 [2] [µM] | IC50 [3] [µM] | IC50 [4] [µM] | EC50 [5] [µM] | SMILES
0.003 | 0.055 | 0.234 | 20 | 0.695 | COc1ccc(C[C@H](NC(=O)[C@H](C)NC(=O)C2Cc3ccccc3C2)C(=O)N[C@@H](Cc2ccccc2)C(=O)C(=O)NCc2ccccc2)cc1
0.524 | 6.16 | 2.73 | 20 | 5.03 | C[C@H](NC(=O)OCc1ccccc1)C(=O)N[C@@H](CC(F)(F)F)C(=O)N[C@@H](Cc1ccccc1)C(=O)C(=O)NCc1ccccc1
0.018 | 0.56 | 0.142 | 3.35 | 1.22 | CCCC[C@H](NC(=O)[C@H](Cc1c[nH]c2ccccc12)NC(=O)[C@H](C)NC(=O)C1=C(C)c2ccccc2C1)C(=O)C(=O)NCc1ccccc1
0.004 | 0.014 | 0.968 | 18.1 | 0.379 | C[C@H](NC(=O)C1Cc2ccccc2C1)C(=O)N[C@@H](CCc1ccccc1)C(=O)N[C@@H](Cc1ccccc1)C(=O)C(=O)NCc1ccccc1
